In patent US20220370468A1, “Methods of treating sleep disorders associated with pain” (Astellas Pharma Global Development, Inc., priority 2019, published 2022):

Legend:
[1] = tested on: patients with fibromyalgia; test: Phase 2a randomized double-blind placebo-controlled study: mean daily average pain score (NRS); type: in vivo, human
Description: (§1) A phase 2a, randomized, double-blind, placebo-controlled, parallel group study was conducted at 24 sites in the United States to assess the analgesic efficacy and safety of the compound of Formula (I) in patients with fibromyalgia. The study consisted of the following: a screening period of up to 42 days, which included a washout period and a 7-day baseline diary run-in; a 57-day double-blind randomized treatment period with site visits at Days 1, 15, 29, and 57; and a 4-week follow-up period consisting of a clinic visit after 2 weeks and a phone call after 4 weeks. The study was carried out in accordance with the Declaration of Helsinki and approved by the relevant Institutional Review Boards. All participants provided written informed consent prior to the initiation of any study procedures.
Male and female patients aged 18 to 80 years were included in the trial if they met the American College of Rheumatology (ACR) 1990 and 2010 fibromyalgia diagnostic criteria at screening (Wolfe et al., 1990; Wolfe et al., 2010b). The core diagnostic criteria for fibromyalgia are defined by the 1990 criteria (Wolfe et al., 1990), and while ACR has published newer criteria, the 1990 version is still commonly utilized in clinical trials. […]
The primary efficacy endpoint for pain was change from baseline to Week 8 in mean daily average pain score assessed by the Numeric Rating Scale (NRS; 0 to 10 scale). […]
(§2) Secondary efficacy endpoints included the number of patients achieving a ≥30% or ≥50% reduction in mean daily average pain score assessed by NRS (0 to 10 scale) from baseline to Week 8 and end of treatment (EOT; Day 57); change from baseline to Weeks 2, 4, 8, and EOT in the FIQR function, symptoms, and overall impact subscales; and overall improvement assessed by patient global impression of change (PGIC) (Rampakakis et al., 2015) at Weeks 2, 4, 8, and EOT.

[2] = tested on: patients with fibromyalgia; test: Phase 2a study: Fibromyalgia Impact Questionnaire Revised (FIQR); type: in vivo, human; details: for FIQR total score improvement from baseline, LS mean difference versus placebo: ANCOVA
Description: as §1
Male and female patients aged 18 to 80 years were included in the trial if they met the American College of Rheumatology (ACR) 1990 and 2010 fibromyalgia diagnostic criteria at screening (Wolfe et al., 1990; Wolfe et al., 2010b). The core diagnostic criteria for fibromyalgia are defined by the 1990 criteria (Wolfe et al., 1990), and while ACR has published newer criteria, the 1990 version is still commonly utilized in clinical trials. To meet ACR 1990 criteria, patients must have had widespread pain for at least 3 months, defined as the presence of pain on the right and left sides of the body, pain above and below the waist, and pain in the axial skeleton (cervical spine, anterior chest, thoracic spine, or low back) (Wolfe et al., 1990). They must also have had pain in at least 11 of 18 tender point sites on digital palpation performed with an approximate force of 4 kg. To meet the ACR 2010 criteria, patients needed to have a widespread pain index (WPI) score of ≥7 and a symptom severity (SS) scale score ≥5, or a WPI score 3-6 and an SS scale score ≥9 (Wolfe et al., 2010b). Symptoms must have been present at a similar level for at least 3 months and patients must have been free of any other disorder that could have explained the pain.
Eligible patients were randomized 1:1 using Interactive Response Technology to receive oral Compound of Formula (I) 15 mg (three capsules of 5 mg) or matching placebo capsules, each given once daily in the morning, with or without food, for 8 weeks.
as §2
Questionnaires on efficacy, such as FIQR and PGIC, were completed during study visits. The FIQR captures the full spectrum of problems related to fibromyalgia and the responses to therapy, ranging from activities of daily living, overall impact, and symptoms (Bennett et al., 2009). Patients answered each question on an 11-point NRS over a recall period of the last 7 days or the last time the activity was performed (for the physical function domain if the activity was not performed within the 7-day recall period). The PGIC is a self-administered 7-point Likert scale that asks patients to evaluate their fibromyalgia relative to baseline (from “very much improved” to “very much worse”) (Rampakakis et al., 2015).
In FIG. 2, the change from baseline in FIQR total score is depicted. The FIQR total score represents the sum of the three sub scale scores: symptom, function, and overall impact. The symptom sub scale accounts for 50%, the function subscale accounts for 30%, and the overall impact subscale accounts for 20% of the total score. Data from double-blind period are presented as LS mean±standard error; data from follow-up period are presented as mean±standard error. […]

[3] = Nonclinical studies: toxicological profile
[4] = tested on: patients with fibromyalgia; test: Phase 2a study: patient global impression of change (PGIC); type: in vivo, human; details: 15 mg once daily
Description: as §1, with “procedures. […]” for “procedures.”
as §2, with “EOT. […]” for “EOT.”

[5] = Nonclinical studies: brain penetration and ADME profile
[6] = target: Kca3.1 potassium ion channel (Homo sapiens, UniProt O15554); test: Kca3.1 channel activity (stated mechanism); type: biochemical

With `Cc1sc2cc(Cl)ccc2c1-c1ccc(N2CCO[C@H](CNC3CCC3)C2)c(C(=O)O)c1` [Compound of Formula (I)] the “responder analysis of mean daily average pain score (≥30% or ≥50% reduction) versus placebo” value ([1]; 15 mg once daily) was “no statistically significant differences”, the “change from baseline in mean daily average pain score versus placebo” value ([1]; Weeks 2, 6 and 7, FIG. 1) was “statistically significant treatment differences in favor of Compound of Formula (I)” and the “change from baseline in mean daily average pain score (NRS 0-10), primary endpoint” value ([1]; baseline to Week 8, 15 mg oral once daily, placebo −1.26) was −1.60. The “FIQR total score improvement from baseline, LS mean difference versus placebo” value ([2]; EOT, LOCF imputation, P=0.050) was −3.75, the “FIQR overall impact subscale, LS mean difference versus placebo” value ([2]; Week 4, P=0.018) was −1.34 and the “FIQR total score reduction from baseline, LS mean difference versus placebo” value ([2]; Week 4, P=0.033) was −4.14. For the same compound, the “FIQR symptoms subscale, LS mean difference versus placebo” value ([2]; Week 4, P=0.039) was −3.73, the “FIQR function subscale, LS mean difference versus placebo” value ([2]; Week 4, P=0.103) was −2.97 and the “reduction from baseline in FIQR function, symptoms subscale, or overall impact subscale versus placebo” value ([2]; baseline to Week 8) was “no statistically significant differences”. The “FIQR total score improvement from baseline, LS mean difference versus placebo” value ([2]; baseline to Week 8, mBOCF imputation, P=0.036) was −4.10, the “FIQR total score reduction from baseline, LS mean difference versus placebo” value ([2]; baseline to Week 8, MMRM analysis, P=0.093) was −3.27 and the toxicological profile [3] was “acceptable toxicological profile”. For the same compound, the “overall patient improvement assessed by PGIC versus placebo” value [4] was “no statistically significant differences”, the brain penetration ([5]; nonclinical) was “poor brain penetration” and the “absorption, distribution, metabolism, and excretion (ADME) profile” value ([5]; nonclinical studies) was “acceptable”. For the same compound, the “action on Kca3.1 potassium ion channel” value [6] was “opener”.
